pIC50: −log10 of the molar value. Read-outs that look alike come from different tables or passages of the source. Non-standard residues stand in square brackets, D forms with d. Residues, ends and D or L forms follow the SMILES beside them. *: point of attachment. Dolaproine = CO[C@@H]([C@@H]1CCCN1)[C@@H](C)C(=O)O; Dil = CC[C@H](C)[C@H](NC)[C@@H](CC(=O)O)OC; Phe(3-NH2) = Nc1cccc(C[C@H](N)C(=O)O)c1; NMe2Val = CC(C)[C@@H](C(=O)*)N(C)C
Key:
Assay type in all cases: cell-based
[1] = test system: CD34^+ hematopoietic stem/progenitor cells; assay: Hematologic toxicity of compounds (CD34+ HSC viability, CTG); details: 240 h; cytotoxic drugs; treatment for 10 days; CTG cell viability
Procedure: Experimental objective: The effects of cytotoxic drugs on the differentiation and development of CD34^+ hematopoietic stem/progenitor cells into the megakaryocytic lineage were investigated, so as to evaluate their potential hematologic toxicity of causing thrombocytopenia.
Experimental design: After resuscitation, bone marrow-mobilized peripheral blood-derived HSCs were seeded at 2000 cells/well/180 µL in an ultra-low attachment 96-well round-bottom plate and stabilized for 4 h. The cells were treated with compounds by performing a 5-fold gradient dilution starting from the highest dose of 1 µM, resulting in a total of 9 concentration points, and this treatment was maintained continuously for 10 days. Cell viability was detected using the CTG reagent (CellTiter-Glo luminescent cell viability detection kit, manufacturer: Promega, Cat. No.: G7571). Table 2. Hematologic toxicity test results of cytotoxic drugs

[2] = test system: human breast cancer cells KPL-4; assay: Cytotoxicity test for compounds (CellTiter-Glo cell proliferation inhibition); details: for pIC50: 3 days of incubation, CellTiter-Glo, read-out: KPL-4/IC50; for IC50: read-out: KPL-4/IC50 (nM)
Procedure: (§1) Biological Test Example 1: Cytotoxicity Test for Compounds
(§2) • 96-well clear flat-bottom white plate (Corning, #3610) • RPMI1640 culture medium (Gibco, #A10491-01) • Fetal Bovine Serum (Sigma-Aldrich, #F8687-500ML) • CellTiter-Glo® Luminescent Cell Viability Assay (Promega, # G7572/G7571)
(§3) Human gastric cancer cells NCI-N87 (ATCC, Cat. No.: CRL-5822), human breast cancer cells MDA-MB-468 (Cell Bank of the Committee for Type Culture Collection of the Chinese Academy of Sciences, Cat. No.: TCHu136), and human breast cancer cells KPL-4 (Nanjing Cobioer Biosciences Co., Ltd., Cat. No.: CBP60379) were washed with PBS and digested with 0.25% Trypsin-EDTA trypsin for about 3-10 min. The digestion was terminated with a complete cell culture medium. The cells were centrifuged at 1000 rpm for 5 min, and the supernatant was discarded. The cells were resuspended in a complete cell culture medium. The cell number was counted using a cell counter, and the cells were adjusted to the desired density. 90.0 µL of the cell suspension was added to each well at 3000 cells/well. The cell plate was incubated in a cell incubator at 37°C with 5% CO2 overnight.
(§4) In the experiment, a DMSO control group and test sample groups were set. The cell plate was removed from the incubator to observe cell adherence. After the cells adhered, 10.00 µL of the sample (starting from a final concentration of 10 µM, 5-fold dilution, 9 concentrations) was added to each well. After the mixture was gently shaken uniformly, the plate was incubated in the incubator.
(§5) After 3 days of incubation, 100.0 µL/well of CellTiter-Glo™ (Promega, Cat. No.: G7572/G7571) working solution was added. The plate was shaken on a thermostatic shaker to lyse the cells. After 10 min, the plate was read on a microplate reader.
(§6) Data analysis: GraphPad Prism 8.0 software was used to plot a graph with the Log value of the sample concentration as the abscissa and the Inhibition% as the ordinate. The data were analyzed by Nonlinear regression (curve fit) to obtain the IC50 value of each test sample. Table 1. Inhibition activity of compounds of the present disclosure on cell proliferation

[3] = test system: human breast cancer cells MDA-MB-468; assay: as above; details: for pIC50: 3 days of incubation, CellTiter-Glo, read-out: MDA-MD-468/IC50; for IC50: read-out: MDA-MD-468/IC50 (nM)
Procedure: as §1, §2, §3, §4, §5, §6

[4] = test system: Human gastric cancer cells NCI-N87; assay: as above; details: for pIC50: 3 days of incubation, CellTiter-Glo, read-out: NCI-87/IC50; for IC50: read-out: NCI-87/IC50 (nM)
Procedure: as §1, §2, §3, §4, §5, §6

SMILES | pIC50 ([2]; Homo sapiens, KPL4, 72 h) | pIC50 ([3]; Homo sapiens, MDA-MB-468, 72 h) | pIC50 ([4]; Homo sapiens, NCI-N87, 72 h) | other results
CC[C@H](C)[C@@H]([C@@H](CC(=O)N1CCC[C@H]1[C@H](OC)[C@@H](C)C(=O)N(C)CCc1cccc(N)c1)OC)N(C)C(=O)[C@@H](NC(=O)[C@H](C(C)C)N(C)C)C(C)C [WO2023081230A1 Compound 1, reference compound] | – | – | – | pIC50 [1]: 10.77
C#C[C@H](Cc1cccc(N)c1)NC(=O)[C@H](C)[C@@H](OC)[C@@H]1CCCN1C(=O)C[C@@H](OC)[C@H]([C@@H](C)CC)N(C)C(=O)[C@@H](NC(=O)[C@H](C(C)C)N(C)C)C(C)C [Example 2, (S)-N-((3R,4S,5S)-1-((S)-2-((1R,2R)-3-(((S)-1-(3-aminophenyl)-but-3-yn-2-yl)amino)-1-methoxy-2-methyl-3-oxopropyl)pyrrolidin-1-yl)-3-methoxy-5-methyl-1-oxoheptan-4-yl)-2-((S)-2-(dimethylamino)-3-methylbutanamido)-N,3-dimethylbutanamide] | 9.68 | 9.44 | 9.29 | –
CC[C@H](C)[C@@H]([C@@H](CC(=O)N1CCC[C@H]1[C@H](OC)[C@@H](C)C(=O)N1CCS(=O)(=O)[C@H](c2cccc(N)c2)C1)OC)N(C)C(=O)[C@@H](NC(=O)[C@H](C(C)C)N(C)C)C(C)C (single isomer, unassigned) [Example 61-P1] | 7.31 | 7.46 | 7.03 | –
C=CCN(CCc1cccc(N)c1)C(=O)[C@H](C)[C@@H](OC)[C@@H]1CCCN1C(=O)C[C@@H](OC)[C@H]([C@@H](C)CC)N(C)C(=O)[C@@H](NC(=O)[C@H](C(C)C)N(C)C)C(C)C [Example 5, (S)-N-((3R,4S,5S)-1-((S)-2-((1R,2R)-3-(allyl(3-aminophenethyl)amino)-1-methoxy-2-methyl-3-oxopropyl)pyrrolidin-1-yl)-3-methoxy-5-methyl-1-oxoheptan-4-yl)-2-((S)-2-(dimethylamino)-3-methylbutanamido)-N,3-dimethylbutanamide] | 8.45 | 8.06 | 8.37 | –
CC[C@H](C)[C@@H]([C@@H](CC(=O)N1CCC[C@H]1[C@H](OC)[C@@H](C)C(=O)N[C@@H](Cc1cccc(N)c1)C(=O)NC)OC)N(C)C(=O)[C@@H](NC(=O)[C@H](C(C)C)N(C)C)C(C)C [Example 4, (S)-N-((3R,4S,5S)-1-((S)-2-((1R,2R)-3-(((S)-3-(3-aminophenyl)-1-(methylamino)-1-oxopropan-2-yl)amino)-1-methoxy-2-methyl-3-oxopropyl)pyrrolidin-1-yl)-3-methoxy-5-methyl-1-oxoheptan-4-yl)-2-((S)-2-(dimethylamino)-3-methylbutanamido)-N,3-dimethylbutanamide] (NMe2Val-V[Dil][Dolaproine][Phe(3-NH2)]-NHMe) | 8.28 | 8.21 | 7.83 | –
CC[C@H](C)[C@@H]([C@@H](CC(=O)N1CCC[C@H]1[C@H](OC)[C@@H](C)C(=O)N[C@H](CCl)Cc1cccc(N)c1)OC)N(C)C(=O)[C@@H](NC(=O)[C@H](C(C)C)N(C)C)C(C)C [Example 1, (S)-N-((3R,4S,5S)-1-((S)-2-((1R,2R)-3-(((S)-1-(3-aminophenyl)-3-chloropropan-2-yl)amino)-1-methoxy-2-methyl-3-oxopropyl)pyrrolidin-1-yl)-3-methoxy-5-methyl-1-oxoheptan-4-yl)-2-((S)-2-(dimethylamino)-3-methylbutanamido)-N,3-dimethylbutanamide] | 9.39 | 9.20 | 9.13 | –
CC[C@H](C)[C@@H]([C@@H](CC(=O)N1CCC[C@H]1[C@H](OC)[C@@H](C)C(=O)N(O)CCc1cccc(N)c1)OC)N(C)C(=O)[C@@H](NC(=O)[C@H](C(C)C)N(C)C)C(C)C [Example 8, (S)-N-((3R,4S,SS)-1-((S)-2-((1R,2R)-3-((3-aminophenethyl)(hydroxy)amino)-1-methoxy-2-methyl-3-oxopropyl)pyrrolidin-1-yl)-3-methoxy-5-methyl-1-oxoheptan-4-yl)-2-((S)-2-(dimethylamino)-3-methylbutanamido)-N,3-dimethylbutanamide] | 9.85 | 9.25 | 9.18 | –
CC[C@H](C)[C@@H]([C@@H](CC(=O)N1CCC[C@H]1[C@H](OC)[C@@H](C)C(=O)O[C@H](CN=[N+]=[N-])Cc1cccc(N)c1)OC)N(C)C(=O)[C@@H](NC(=O)[C@H](C(C)C)N(C)C)C(C)C [Example 15] | – | – | – | IC50 ([2]; Homo sapiens, KPL4, 72 h): 2 nM; IC50 ([3]; Homo sapiens, MDA-MB-468, 72 h): 2.74 nM; IC50 ([4]; Homo sapiens, NCI-N87, 72 h): 11.3 nM
CC[C@H](C)[C@@H]([C@@H](CC(=O)N1CCC[C@H]1[C@H](OC)[C@@H](C)C(=O)N1CCS(=O)(=O)[C@@H](c2cccc(N)c2)C1)OC)N(C)C(=O)[C@@H](NC(=O)[C@H](C(C)C)N(C)C)C(C)C (single isomer, unassigned) [Example 61-P2] | 7.61 | 7.88 | 7.25 | –
CC[C@H](C)[C@@H]([C@@H](CC(=O)N1CCC[C@H]1[C@H](OC)[C@@H](C)C(=O)OC(/C=C/C(=O)OC)Cc1cccc(N)c1)OC)N(C)C(=O)[C@@H](NC(=O)[C@H](C(C)C)N(C)C)C(C)C (single isomer, unassigned) [Example 29] | – | – | – | pIC50 [2]: > 10.59; pIC50 [3]: 8.50; pIC50 [4]: 8.43
CC[C@H](C)[C@@H]([C@@H](CC(=O)N1CCC[C@H]1[C@H](OC)[C@@H](C)C(=O)O[C@H](C)Cc1cccc(N)c1)OC)N(C)C(=O)[C@@H](NC(=O)[C@H](C(C)C)N(C)C)C(C)C [Example 11, (R)-1-(3-aminophenyl)propan-2-yl (2R,3R)-3-((S)-1-((3R,4S,5S)-4-((S)-2-((S)-2-(dimethylamino)-3-methylbutanamido)-N,3-dimethylbutanamido)-3-methoxy-5-methylheptanoyl)pyrrolidin-2-yl)-3-methoxy-2-methylpropanoate] | 10.00 | 8.52 | 9.82 | –
CC[C@H](C)[C@@H]([C@@H](CC(=O)N1CCC[C@H]1[C@H](OC)[C@@H](C)C(=O)N(CC#N)CCc1cccc(N)c1)OC)N(C)C(=O)[C@@H](NC(=O)[C@H](C(C)C)N(C)C)C(C)C [Example 45, (S)-N-((3R,4S,5S)-1-((S)-2-((1R,2R)-3-((3-aminophenethyl)(cyanomethyl)amino)-1-methoxy-2-methyl-3-oxopropyl)pyrrolidin-1-yl)-3-methoxy-5-methyl-1-oxoheptan-4-yl)-2-((S)-2-(dimethylamino)-3-methylbutanamido)-N,3-dimethylbutanamide] | 9.19 | – | 8.66 | pIC50 [1]: 9.63
C#CC(Cc1cccc(N)c1)OC(=O)[C@H](C)[C@@H](OC)[C@@H]1CCCN1C(=O)C[C@@H](OC)[C@H]([C@@H](C)CC)N(C)C(=O)[C@@H](NC(=O)[C@H](C(C)C)N(C)C)C(C)C (single isomer, unassigned) [Example 21] | > 10.59 | > 10.59 | > 10.59 | –
C#CC[C@H](Cc1cccc(N)c1)OC(=O)[C@H](C)[C@@H](OC)[C@@H]1CCCN1C(=O)C[C@@H](OC)[C@H]([C@@H](C)CC)N(C)C(=O)[C@@H](NC(=O)[C@H](C(C)C)N(C)C)C(C)C [Example 17] | – | – | – | IC50 ([2]; Homo sapiens, KPL4, 72 h): < 0.0256 nM; IC50 ([3]; Homo sapiens, MDA-MB-468, 72 h): < 0.0256 nM; IC50 ([4]; Homo sapiens, NCI-N87, 72 h): < 0.0256 nM
CC[C@H](C)[C@@H]([C@@H](CC(=O)N1CCC[C@H]1[C@H](OC)[C@@H](C)C(=O)OCCc1cccc(N)c1)OC)N(C)C(=O)[C@@H](NC(=O)[C@H](C(C)C)N(C)C)C(C)C [Example 13] | – | – | – | IC50 ([2]; Homo sapiens, KPL4, 72 h): 0.18 nM; IC50 ([3]; Homo sapiens, MDA-MB-468, 72 h): 0.56 nM; IC50 ([4]; Homo sapiens, NCI-N87, 72 h): 0.58 nM
C=CC(Cc1cccc(N)c1)OC(=O)[C@H](C)[C@@H](OC)[C@@H]1CCCN1C(=O)C[C@@H](OC)[C@H]([C@@H](C)CC)N(C)C(=O)[C@@H](NC(=O)[C@H](C(C)C)N(C)C)C(C)C (stereo partly shown) [Example 19] | – | – | – | IC50 ([2]; Homo sapiens, KPL4, 72 h): < 0.0256 nM; IC50 ([3]; Homo sapiens, MDA-MB-468, 72 h): < 0.0256 nM; IC50 ([4]; Homo sapiens, NCI-N87, 72 h): < 0.0256 nM

— patent EP4786483A1, “AURISTATIN DERIVATIVE AND ANTIBODY-DRUG CONJUGATE THEREOF” (priority 2023, dated 2025)
